Experimental data taken from patent US4003945A, “Novel cyclopropanecarboxylates” (Sumitomo Chemical Company, Limited, priority 1973, dated 1977).
Values after ≈ are worked out from the molar mass of the structure shown.

Tests used:
adults of houseflies = test: Oil preparation sprayed on Campbell's turn table (Example XX); type: in vivo, housefly; settings: Musca domestica, 24 h; Table 6; 1% oil preparation 5 ml, 10 minutes exposure, next day
Procedure: The oil preparation obtained as in Example B (5 ml) was sprayed by the use of a Campbell's turn table [Soap & Sanitary Chemicals, Vol. 14, No. 6, 119 (1938) ] on 100 adults of houseflies were exposed to the spray for 10 minutes. The houseflies were then allowed to stand with feeding. On the next day, dead and alive were observed.

[1] = Oral acute toxicity in male mice (Example XXI); settings: mouse, in vivo, Table 7, male mice of about 20 g
From the text: An emulsion prepared by diluting with water the present compounds 31, 32, 33, 34, 35, 46, 63, in the form of an emulsifiable concentrate was orally administrated to male mice of about 20 g in body weight.

tobacco cut worm = test: Dust on Chinese cabbages in the field (Example XVIII); type: in vivo; settings: 5% dust, 3kg/10 ares, for 2 months
From the text: Each 5% dust of the present compounds 31, 32, 62, 63 was spread in a ratio of 3kg/10 ares on the Chinese cabbages of 40 days after sowing in the field. And about 9,000 eggs of tobacco cut worm were put on the leaves of the Chinese cabbages per 10 ares every 5 days for a month.

[2] = test system: Full grown larvae of the Northern house mosquito; test: Larvicidal test in beaker with diluted emulsifiable concentrate (Example XIX); type: in vivo; settings: Table 5; after 24 hours
Procedure: 30 Full grown larvae of the Northern house mosquito were released into the beaker with 200 ml of dilution of each emulsifiable concentrates which obtained in Example X.

[3] = test system: leafhoppers of resistant and susceptible strains; test: Emulsion sprayed on rice seedlings, leafhoppers released (Example XVI); type: in vivo, leafhopper; settings: emulsion diluted to 50 times
Procedure: About 20 rice seedlings, cultivated for 20 days after sowing in a flower pot of 8.5 cm in diameter were sprayed with each of the present compounds (31, 32, 35, 39, 40, 42, 45, 48, 55, 59, 60, 63, 131 - 134, 139) in the form of an emulsion which were diluted to 50 times. Each pot was put into the beaker and covered with gauze, into which leafhoppers of resistant and susceptible strains, respectively, were released in each beaker. And the number of knocked down insects after 1 hour and the mortality after 24 hours were counted. As a result, the knock down per centage was more than 50% and the mortality was more than 80% in each case.

adult planthoppers = test: Residual effect on sprayed rice seedlings (Example XV); type: in vivo; settings: concentrate diluted to 400 times; observed 24 hours after release
Procedure: About 20 rice seedlings, cultivated for 20 days after sowing in a flower pot of 8.5 cm in diameter, were sprayed with each of the emulsifiable concentrates obtained as in Example X which were diluted to 400 times with water. After air-drying, each pot was covered with a wire cage, into which 20 adult planthoppers were released as time elapsed. And the observation was made after 24 hours.

[4] = test system: larvae of tobacco cut worm, diamondback moth and common cabbage worms; test: Fumigation of Chinese cabbages in vinyl house with heated wettable powder (Example XIV); type: in vivo; settings: 10 grams of 40% wettable powder per 30 m^2 compartment
From the text: In the vinyl house, the Chinese cabbages were cultivated and the leaves were parasitized with the larvae of tobacco cut worm, diamondback moth and common cabbage worms.
The vinyl house (its height was 2 m) was divided into compartments of 30 m^2 in area and 10 grams of the present compound (1, 4) in the form of 40% wettable powder was put into the plate heated by fire.

[5] = test system: 3rd or 4th instar larvae of tobacco cut worm; test: Diluted emulsion sprayed by settling tower on larvae (Example X); type: in vivo; settings: emulsion diluted to 50 times, 1 ml
Procedure: Ten of the 3rd or 4th instar larvae of tobacco cut worm were put into a petri dish of 17 cm in diameter.
One ml of the present compound (4, 11, 28, 92, 94, 95, 109, 111) in form of an emulsion obtained in Example X, which were diluted to 50 times with water, were sprayed by means of a settling tower. The said larvae were removed into another petri dish with the leaves of the chinese cabbage leaves. Observation was made after 48 hrs. As a result, more than 90% of the larvae were dead in each case.

housefly adults = test: Oil spray, Campbel's turn table, lethal concentration (Test Example 2); type: in vivo; settings: Musca domestica, 24 h
Procedure: A group of about 100 housefly adults was exposed to descending spray for 10 minutes, thereafter was transferred to an observation cage, was fed, and was allowed to stand at room temperature.
After a day, the dead and alive were counted to calculate the lethal ratio.

adult leafhoppers = test: Granule applied to rice plants in Wagner pot (Example XIII); type: in vivo, leafhopper; settings: granule of Example W, 10 kg/10 ares
Procedure: Rice plants at the tillering stage were grown in Wagner pots, and the depth of water was kept at 5 cm.
The present compound (4) obtained in Example W was put into the Wagner pot with 10 kg/10 ares, and the said pot was covered with a wire cage into which 20 adult leafhoppers were released.

| Compound | mortality at 1 % (adults of houseflies) [%] | LD50 at 48 h [1] [mg/kg] | damage of the Chinese cabbages by tobacco cut worms (tobacco cut worm) | LC50 [2] [ppm] | knock down percentage after 1 hour [3] | mortality after 24 hours [3] | Mortality (%) After 1 day (adult planthoppers) [%] | Mortality (%) After 6 days (adult planthoppers) [%] | other results |
| --- | --- | --- | --- | --- | --- | --- | --- | --- | --- |
| C#CC(OC(=O)C1C(C=C(C)C)C1(C)C)C(C)=Cc1ccccc1 (stereo not drawn) [Compound 32, α-Ethynyl-β-methylcinnamyl chrysanthemate] | 96 | > 500 | the damage of the Chinese cabbages by tobacco cut worms was not found | 0.069 | more than 50% | more than 80% | 100 | 100 | – |
| C#CC(OC(=O)C1C(C=C(C)C)C1(C)C)C(C)=Cc1ccc2c(c1)OCO2 (stereo not drawn) [Compound 35, α-Ethynyl-β-methyl-3,4-methylenedioxycinnamyl chrysanthemate] | – | > 600 | – | – | more than 50% | more than 80% | – | – | – |
| C#CC(OC(=O)C1C(C=C(C)C)C1(C)C)C(C)=Cc1ccc(C)cc1 (stereo not drawn) [Compound 33, α-Ethynyl-β-methyl-4-methylcinnamyl chrysanthemate] | – | > 600 | – | 0.34 | – | – | – | – | – |
| C#CC(OC(=O)C1C(C=C(C)C)C1(C)C)C(=Cc1ccccc1)CC (stereo not drawn) [Compound 63, α-Ethynyl-β-ethylcinnamyl chrysanthemate] | 95 | > 600 | the damage of the Chinese cabbages by tobacco cut worms was not found | 0.14 | more than 50% | more than 80% | 100 | 53.3 | – |
| C#CC(OC(=O)C1C(C=C(Cl)Cl)C1(C)C)C(C)=Cc1ccc2c(c1)OCO2 (stereo not drawn) [Compound 139, α-Ethynyl-β-methyl-3,4-methylenedioxy-cinnamyl 2',2'-dimethyl-3'-(2",2"-dichlorovinyl)-cyclopropanecarboxylate] | 95 | – | – | – | more than 50% | more than 80% | – | – | – |
| C#CC(OC(=O)C1C(C=C(C)C)C1(C)C)C(C)=Cc1ccc(C(C)C)cc1 (stereo not drawn) [Compound 46, α-Ethynyl-β-methyl-4-iso-propylcinnamyl chrysanthemate] | – | > 600 | – | – | – | – | – | – | – |
| C#CC(C=Cc1ccccc1)OC(=O)C1C(C=C(C)C)C1(C)C (stereo not drawn) [Compound 31, α-Ethynylcinnamyl chrysanthemate] | 92 | > 500 | the damage of the Chinese cabbages by tobacco cut worms was not found | 0.12 | more than 50% | more than 80% | 100 | 75.8 | – |
| C#CC(OC(=O)C1C(C=C(C)C)C1(C)C)C(C)=Cc1ccccc1Cl (stereo not drawn) [Compound 34, α-Ethynyl-β-methyl-2-chlorocinnamyl chrysanthemate] | – | > 600 | – | 0.14 | – | – | – | – | – |
| C#CC(C=CCc1ccccc1)OC(=O)C1C(C=C(C)C)C1(C)C (stereo not drawn) [Compound 62, α-Ethynyl-γ-benzylallyl chrysanthemate] | 93 | – | the damage of the Chinese cabbages by tobacco cut worms was not found | 0.034 | – | – | 100 | 100 | – |
| C#CC(OC(=O)C1C(C=C(C)C)C1(C)C)C(C)=CCC (stereo not shown) [Compound 4, 1-Ethynyl-2-methyl-2-pentenyl chrysanthemate] | – | – | – | – | – | – | – | – | increasing of the damage [4]: the increasing of the damage was not found; larvae dead after 48 hrs [5]: more than 90%; LC50 (housefly adults): 1400 µg/mL (≈ 5.1 mM); leafhoppers dead after 24 hrs (adult leafhoppers): more than 90% |
| C#CC(C=CC)OC(=O)C1C(C=C(C)C)C1(C)C (stereo not shown) [Compound 1, 1-Ethynyl-2-butenyl chrysanthemate] | – | – | – | – | – | – | – | – | increasing of the damage [4]: the increasing of the damage was not found; LC50 (housefly adults): 5500 µg/mL (≈ 22.3 mM) |
